# “And” between values parts separate entries of the source, which are not always exact repeats. Equal entries are not always repeated. Where two headings read alike, the source gives them in different places.
# Key:
# Single oral dose PK [1] = assay type: in vivo; settings: Bama, minipig, plasma
# Protocol: The PK of ribitol was studied in 3 male and 3 female Bama minipigs following escalating PO dose levels using the same animals with a 48 hour washout period at 0.3 g/kg (Day 1) (FIG. 11A), 1.0 g/kg (Day 3) (FIG. 11B) and 0.3 g/kg TID (Day 16) (FIG. 11C). On Days 1 and 3, blood samples were collected at 0, 0.5, 1, 2, 4, 8, 12, and 24 hours post dose from all animals. On Day 16, blood samples were collected from all animals at 0, 0.5, 1, 2, 4, 6 (pre-second dose), 6.5, 7, 8, 10, 12 (pre-third dose), 12.5, 13, 14, 16, and 24 hours post dose.
# [2] = 28-day oral GLP toxicity study with 14-day recovery; settings: minipig
# Protocol: The purpose of this GLP study was to assess the potential toxicity, reversibility, persistence, or delayed effects of ribitol in minipigs following 28 days of BID oral gavage dosing with a 14 day recovery period. In addition, the plasma TK profile of ribitol was evaluated on Days 1 and 28. Four Bama minipigs/sex/group were administered 0 (vehicle control, purified water), 0.1, 0.3, or 1.0 g/kg/dose ribitol by oral gavage BID (0.2, 0.6, 2.0 g/kg/day; 6 hours apart) for 28 days. In addition, 2 minipigs/sex/group were treated for 28 days with either vehicle (water) or 1.0 g/kg/dose ribitol BID (2.0 g/kg/day) followed by 14-day treatment-free recovery period. In-life assessments included mortality, clinical signs including detailed clinical observations pre-test and once weekly during the dosing and recovery phase, body weight, food consumption, ophthalmology, electrocardiography, and clinical pathology (hematology, coagulation, serum chemistry, and urinalysis). Terminal endpoints included macroscopic pathology, organ weights and histopathology. Blood was taken for plasma TK on Days 1 and 28.
# [3] = In vitro permeability study; assay type: in vitro ADME; settings: human, Caco-2, 300 μg/mL
# Protocol: (§1) The absorption of ribitol was evaluated in Caco-2 cells at a concentration of 300 μg/mL. The apparent permeability values for apical (A)-to-basal (B) and B-to-A transport were <0.4 and […], respectively.
# Caco-2 cells = test: In vitro permeability study; assay type: in vitro ADME
# Protocol: as §1
# Single oral dose PK [4] = assay type: in vivo, CD-1 mouse
# Protocol: The PK of ribitol was studied in male and female CD-1 mice following two oral doses at 0.3 and 1.0 g/kg (FIG. 10). Blood samples were collected serially up to 24 hours post dose.
# in vivo [5] = test: in vivo
# Protocol: The purpose of this study was to determine the MTD following a single oral dose (Phase 1) and to characterize the toxicity and toxicokinetic profile following 7 days BID dosing with ribitol (Phase 2).
# In Phase 1, Swiss Crl: CD1® mice (5/sex/group) were given ribitol at 0.3, 1.0, 1.5, or 2.0 g/kg/dose BID (0.6, 2.0, 3.0, or 4.0 g/kg/day) with 5 to 7 hours between doses. […] Mice were assessed for viability, clinical signs, body weight, food consumption, and macroscopic findings at necropsy.
# Doses were selected for Phase 2 based on the Phase 1 study results and the intended highest clinical dose of 12.0 g/day. In Phase 2, mice (5/sex/group) were given oral doses of 0 (vehicle control, purified water), 0.5, 1.0, or 1.5 g/kg/dose ribitol BID (1.0, 2.0, 3.0 g/kg/day) with 6 hours between doses. Mice were assessed for viability, clinical signs, body weight, food consumption, clinical pathology (hematology and serum chemistry), organ weights (adrenal glands, brain, heart, kidneys, liver with gall bladder, ovaries, spleen, testes, and thymus), and macroscopic pathology at necropsy. Blood was taken from a satellite group of animals (3/sex/timepoint) for plasma TK analysis on Days 1 and 7.
# in vivo [6] = test: in vivo; set-up: species or system mouse
# [7] = CD-1, mouse, plasma, single PO 0.3 g/kg, female
# [8] = CD-1, mouse, plasma, single PO 0.3 g/kg, male
# [9] = CD-1, mouse, plasma, single PO 1.0 g/kg, female
# [10] = CD-1, mouse, plasma, single PO 1.0 g/kg, male
smiles,measurement,setting,value
"OC[C@@H](O)[C@@H](O)[C@@H](O)CO [ribitol, (2R,3s,4S)-Pentane-1,2,3,4,5-pentol]",AUC(0-inf),"Single oral dose PK [1]; single PO 0.3 g/kg, female",245 µg·h/mL
same,Cmax,"Single oral dose PK [1]; single PO 0.3 g/kg, female",128 µg/mL
same,half-life,"Single oral dose PK [1]; single PO 0.3 g/kg, female",73.8 min
same,bioavailability,"Single oral dose PK [1]; single PO 0.3 g/kg, female, read-out: % F",65.3%
same,Tmax,"Single oral dose PK [1]; single PO 0.3 g/kg, female, read-out: Tmax",40.2 min
same,AUC(0-inf),"Single oral dose PK [1]; single PO 0.3 g/kg, male",210 µg·h/mL
same,Cmax,"Single oral dose PK [1]; single PO 0.3 g/kg, male",112 µg/mL
same,half-life,"Single oral dose PK [1]; single PO 0.3 g/kg, male",96 min
same,bioavailability,"Single oral dose PK [1]; single PO 0.3 g/kg, male, read-out: % F",55.9%
same,Tmax,"Single oral dose PK [1]; single PO 0.3 g/kg, male, read-out: Tmax",30 min
same,AUC(0-inf),"Single oral dose PK [1]; single PO 1.0 g/kg, female",878 µg·h/mL
same,Cmax,"Single oral dose PK [1]; single PO 1.0 g/kg, female",368 µg/mL
same,half-life,"Single oral dose PK [1]; single PO 1.0 g/kg, female",85.8 min
same,bioavailability,"Single oral dose PK [1]; single PO 1.0 g/kg, female, read-out: % F",70.2%
same,Tmax,"Single oral dose PK [1]; single PO 1.0 g/kg, female, read-out: Tmax",40.2 min
same,AUC(0-inf),"Single oral dose PK [1]; single PO 1.0 g/kg, male",869 µg·h/mL
same,Cmax,"Single oral dose PK [1]; single PO 1.0 g/kg, male",404 µg/mL
same,half-life,"Single oral dose PK [1]; single PO 1.0 g/kg, male",88.2 min
same,bioavailability,"Single oral dose PK [1]; single PO 1.0 g/kg, male, read-out: % F",69.4%
same,Tmax,"Single oral dose PK [1]; single PO 1.0 g/kg, male, read-out: Tmax",30 min
same,Tmax,"Single oral dose PK [1]; both sexes, po, read-out: Tmax after oral administration",< 120 min
same,bioavailability,"Single oral dose PK [1]; both sexes, po, range over doses and sexes, read-out: oral bioavailability",55.9 to 70.2%
same,NOAEL at 28 days,"[2]; both, Bama, in vivo, po",2000 mg/kg/day
same,NOAEL,"[2]; 28 days oral, both sexes",1 g/kg/dose BID and 1.0 g/kg/dose BID
same,Papp A→B at 300 μg/mL,[3]; read-out: apparent permeability A-to-B,< 0.4 ×10⁻⁶ cm/s
same,Papp B→A at 300 μg/mL,[3]; read-out: apparent permeability B-to-A,< 0.1 ×10⁻⁶ cm/s
same,P-gp substrate,Caco-2 cells,not a P-glycoprotein (P-gp) substrate
same,permeability class,Caco-2 cells,low permeability
same,Tmax,"Single oral dose PK [4]; CD-1, mouse, plasma, oral, mice, stated for FOB timepoint selection, read-out: Tmax",~60 min
same,AUC(0-inf),Single oral dose PK [4]; [7],55.9 µg·h/mL
same,Cmax,Single oral dose PK [4]; [7],55 µg/mL
same,bioavailability,"Single oral dose PK [4]; CD-1, mouse, plasma, single PO 0.3 g/kg, female, read-out: % F",30.9%
same,half-life,"Single oral dose PK [4]; CD-1, mouse, plasma, single PO 0.3 g/kg, female, read-out: T1/2 (converted)",78.6 min
same,Tmax,"Single oral dose PK [4]; CD-1, mouse, plasma, single PO 0.3 g/kg, female, read-out: Tmax",30 min
same,AUC(0-inf),Single oral dose PK [4]; [8],41.6 µg·h/mL
same,Cmax,Single oral dose PK [4]; [8],45.6 µg/mL
same,bioavailability,"Single oral dose PK [4]; CD-1, mouse, plasma, single PO 0.3 g/kg, male, read-out: % F",24.6%
same,half-life,"Single oral dose PK [4]; CD-1, mouse, plasma, single PO 0.3 g/kg, male, read-out: T1/2 (converted)",40.6 min
same,Tmax,"Single oral dose PK [4]; CD-1, mouse, plasma, single PO 0.3 g/kg, male, read-out: Tmax",30 min
same,AUC(0-inf),Single oral dose PK [4]; [9],129 µg·h/mL
same,Cmax,Single oral dose PK [4]; [9],124 µg/mL
same,bioavailability,"Single oral dose PK [4]; CD-1, mouse, plasma, single PO 1.0 g/kg, female, read-out: % F",22.1%
same,half-life,"Single oral dose PK [4]; CD-1, mouse, plasma, single PO 1.0 g/kg, female, read-out: T1/2 (converted)",70.2 min
same,Tmax,"Single oral dose PK [4]; CD-1, mouse, plasma, single PO 1.0 g/kg, female, read-out: Tmax",30 min
same,AUC(0-inf),Single oral dose PK [4]; [10],173 µg·h/mL
same,Cmax,Single oral dose PK [4]; [10],112 µg/mL
same,bioavailability,"Single oral dose PK [4]; CD-1, mouse, plasma, single PO 1.0 g/kg, male, read-out: % F",30.5%
same,half-life,"Single oral dose PK [4]; CD-1, mouse, plasma, single PO 1.0 g/kg, male, read-out: T1/2 (converted)",78.6 min
same,Tmax,"Single oral dose PK [4]; CD-1, mouse, plasma, single PO 1.0 g/kg, male, read-out: Tmax",30 min
same,Tmax,"Single oral dose PK [4]; both sexes, CD-1, mouse, plasma, po, read-out: Tmax after oral administration",< 120 min
same,bioavailability,"Single oral dose PK [4]; both sexes, CD-1, plasma, po, mouse, range over doses and sexes, read-out: oral bioavailability",22.1 to 30.9%
same,half-life,"Single oral dose PK [4]; both sexes, CD-1, plasma, po, mouse, range, read-out: T1/2 following the oral dose",40.6 to 78.6 min
same,"mortality, clinical signs, body weight, food consumption, macroscopic findings","in vivo [5]; Phase 1, up to 2.0 g/kg/dose BID (4.0 g/kg/day), 14-day observation",no treatment-related mortality
same,NOAEL at 7 days,"in vivo [5]; both, CD-1, mouse, in vivo, po",3000 mg/kg/day
same,NOAEL,"in vivo [5]; mouse, in vivo, po",1.5 g/kg/dose BID
same,AUC(0-t),"in vivo [6]; CD-1, mouse, po, 0.5 mg/kg/day, AUC(0-24), calculated exposure",182 µg·h/mL
same,AUC(0-t),"in vivo [6]; CD-1, mouse, po, 2 g/kg/day, AUC(0-24), calculated exposure",727 µg·h/mL
same,AUC(0-t),"in vivo [6]; female, CD-1, mouse, po, 3 g/kg/day, Steady-state AUC(0-24)",839 µg·h/mL
same,AUC(0-t),"in vivo [6]; female, mouse, 3 g/kg/day, Steady-state AUC(0-24)",749 µg·h/mL
same,AUC(0-t),"in vivo [6]; male, CD-1, mouse, po, 3 g/kg/day, Steady-state AUC(0-24)",1340 µg·h/mL
same,AUC(0-t),"in vivo [6]; male, mouse, 3 g/kg/day, Steady-state AUC(0-24)",974 µg·h/mL

# — patent publication US20230364118A1, “RIBITOL TREATMENT” (priority 2020, published 2023)
